Measurements from ChEMBL document CHEMBL3885881, “DrugMatrix”.

Organism: Rattus norvegicus
Test: DrugMatrix - Regimen: Daily Repeat
Assay type: toxicity, organism-based, Sprague-Dawley
Set-up: regimen Daily Repeat, gender Male, age 6-8 weeks
Conditions: in vivo, sc, 15 mg/kg, route subcutaneous, dose level Low, […]; for ABSOLUTE BASOPHIL / ABSOLUTE EOSINOPHIL / ABSOLUTE LYMPHOCYTE / ABSOLUTE MONOCYTE / ABSOLUTE SEGMENTED NEUTROPHIL / BASOPHIL / EOSINOPHIL / ERYTHROCYTE COUNT / HEMATOCRIT / HEMOGLOBIN / LEUKOCYTE COUNT / LYMPHOCYTE / MEAN CORPUSCULAR HEMOGLOBIN / MEAN CORPUSCULAR HEMOGLOBIN CONCENTRATION / MEAN CORPUSCULAR VOLUME / MONOCYTE / NEUTROPHIL / NUCLEATED RED BLOOD CELLS / PLATELET COUNT: tissue Blood; for ALANINE AMINOTRANSFERASE / ALBUMIN / ALKALINE PHOSPHATASE / ASPARTATE AMINOTRANSFERASE / BLOOD UREA NITROGEN / CARBON DIOXIDE / CHLORIDE / CHOLESTEROL / CREATINE PHOSPHOKINASE / CREATININE / GLUCOSE / LACTATE DEHYDROGENASE / LIPASE / PHOSPHORUS / POTASSIUM / SODIUM / TOTAL BILIRUBIN / TOTAL PROTEIN / URIC ACID: tissue Plasma

SMILES: CC=CC(=O)N(CC)c1ccccc1C
- ABSOLUTE BASOPHIL (72 h, time 3 day): 0 CELLS/uL
- ABSOLUTE EOSINOPHIL (72 h, time 3 day): 112 CELLS/uL
- ABSOLUTE LYMPHOCYTE (72 h, time 3 day): 10089.67 CELLS/uL
- ABSOLUTE MONOCYTE (72 h, time 3 day): 82.33 CELLS/uL
- ABSOLUTE SEGMENTED NEUTROPHIL (72 h, time 3 day): 1549.33 CELLS/uL
- BASOPHIL (72 h, time 3 day): 0%
- EOSINOPHIL (72 h, time 3 day): 1%
- ERYTHROCYTE COUNT (72 h, time 3 day): 5.39 x10E6/uL
- HEMATOCRIT (72 h, time 3 day): 34.37%
- HEMOGLOBIN (72 h, time 3 day): 13.8 G/DL
- LEUKOCYTE COUNT (72 h, time 3 day): 11.83 x10E3/uL
- LYMPHOCYTE (72 h, time 3 day): 86.33%
- MEAN CORPUSCULAR HEMOGLOBIN (72 h, time 3 day): 25.63 pg
- MEAN CORPUSCULAR HEMOGLOBIN CONCENTRATION (72 h, time 3 day): 40.2 G/DL
- MEAN CORPUSCULAR VOLUME (72 h, time 3 day): 63.7 fL
- MONOCYTE (72 h, time 3 day): 0.67%
- NEUTROPHIL (72 h, time 3 day): 12%
- NUCLEATED RED BLOOD CELLS (72 h, time 3 day): 0.33 /100WBC
- PLATELET COUNT (72 h, time 3 day): 1164.67 x10E3/uL
- ALANINE AMINOTRANSFERASE (72 h, time 3 day): 60.33 u/L
- ALBUMIN (72 h, time 3 day): 4.3 G/DL
- ALKALINE PHOSPHATASE (72 h, time 3 day): 309.33 u/L
- ASPARTATE AMINOTRANSFERASE (72 h, time 3 day): 90 u/L
- BLOOD UREA NITROGEN (72 h, time 3 day): 14.33 mg/dL
- CARBON DIOXIDE (72 h, time 3 day): 25.33 mmol/L
- CHLORIDE (72 h, time 3 day): 102 MEQ/L
- CHOLESTEROL (72 h, time 3 day): 88 mg/dL
- CREATINE PHOSPHOKINASE (72 h, time 3 day): 214.67 u/L
- CREATININE (72 h, time 3 day): 0.15 mg/dL
- GLUCOSE (72 h, time 3 day): 154.33 mg/dL
- LACTATE DEHYDROGENASE (72 h, time 3 day): 252.33 u/L
- LIPASE (72 h, time 3 day): 9 u/L
- PHOSPHORUS (72 h, time 3 day): 13.47 mg/dL
- POTASSIUM (72 h, time 3 day): 6.79 MEQ/L
- SODIUM (72 h, time 3 day): 146.9 MEQ/L
- TOTAL BILIRUBIN (72 h, time 3 day): 0.2 mg/dL
- TOTAL PROTEIN (72 h, time 3 day): 6 G/DL
- URIC ACID (72 h, time 3 day): 1.6 mg/dL
- ABSOLUTE BASOPHIL (120 h, time 5 day): 0 CELLS/uL
- ABSOLUTE EOSINOPHIL (120 h, time 5 day): 0 CELLS/uL
- ABSOLUTE LYMPHOCYTE (120 h, time 5 day): 9506.33 CELLS/uL
- ABSOLUTE MONOCYTE (120 h, time 5 day): 133 CELLS/uL
- ABSOLUTE SEGMENTED NEUTROPHIL (120 h, time 5 day): 1294 CELLS/uL
- BASOPHIL (120 h, time 5 day): 0%
- EOSINOPHIL (120 h, time 5 day): 0%
- ERYTHROCYTE COUNT (120 h, time 5 day): 5.45 x10E6/uL
- HEMATOCRIT (120 h, time 5 day): 35.03%
- HEMOGLOBIN (120 h, time 5 day): 13.53 G/DL
- LEUKOCYTE COUNT (120 h, time 5 day): 10.93 x10E3/uL
- LYMPHOCYTE (120 h, time 5 day): 87%
- MEAN CORPUSCULAR HEMOGLOBIN (120 h, time 5 day): 24.9 pg
- MEAN CORPUSCULAR HEMOGLOBIN CONCENTRATION (120 h, time 5 day): 38.67 G/DL
- MEAN CORPUSCULAR VOLUME (120 h, time 5 day): 64.33 fL
- MONOCYTE (120 h, time 5 day): 1.33%
- NEUTROPHIL (120 h, time 5 day): 11.67%
- NUCLEATED RED BLOOD CELLS (120 h, time 5 day): 2 /100WBC
- PLATELET COUNT (120 h, time 5 day): 1237.33 x10E3/uL
- ALANINE AMINOTRANSFERASE (120 h, time 5 day): 56 u/L
- ALBUMIN (120 h, time 5 day): 4.23 G/DL
- ALKALINE PHOSPHATASE (120 h, time 5 day): 398.67 u/L
- ASPARTATE AMINOTRANSFERASE (120 h, time 5 day): 78 u/L
- BLOOD UREA NITROGEN (120 h, time 5 day): 15 mg/dL
- CARBON DIOXIDE (120 h, time 5 day): 27 mmol/L
- CHLORIDE (120 h, time 5 day): 102.33 MEQ/L
- CHOLESTEROL (120 h, time 5 day): 73.67 mg/dL
- CREATINE PHOSPHOKINASE (120 h, time 5 day): 195.33 u/L
- CREATININE (120 h, time 5 day): 0.19 mg/dL
- GLUCOSE (120 h, time 5 day): 148.33 mg/dL
- LACTATE DEHYDROGENASE (120 h, time 5 day): 106 u/L
- LIPASE (120 h, time 5 day): 8.33 u/L
- PHOSPHORUS (120 h, time 5 day): 12.73 mg/dL
- POTASSIUM (120 h, time 5 day): 6.57 MEQ/L
- SODIUM (120 h, time 5 day): 147 MEQ/L
- TOTAL BILIRUBIN (120 h, time 5 day): 0.2 mg/dL
- TOTAL PROTEIN (120 h, time 5 day): 6.1 G/DL
- URIC ACID (120 h, time 5 day): 1.2 mg/dL
